# Values quoted from earlier work, collected in US12472264B2, “Cell-penetrating peptides” (Oxford University Innovation Limited, priority 2018, dated 2025).
# Test system: exon 51
# Conditions: background statement on FDA accelerated approval, September 2016
substance,measurement,value
eteplirsen,levels of dystrophin restoration,approximately 1 % of normal dystrophin levels
